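Where inhibition never reached the appropriate level, the endpoint shown equals the highest concentration tested. Otherwise, values were interpolated linearly from a five-concentration, 48-hour dose response in 96-well plates. TGI is the concentration that stops growth completely.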
Key:
Test in all cases: inhibition of tumour cell growth, NCI panel, 48 h
[1] = tested on: EKVX NSCLC
[2] = tested on: HCT-15 colon
[3] = tested on: IGROV1 ovarian
[4] = tested on: K-562 leukemia
[5] = tested on: MCF7 breast
[6] = tested on: NCI/ADR-RES ovarian
[7] = tested on: SF-539 CNS
[8] = tested on: SK-MEL-2 melanoma
[9] = tested on: U251 CNS
[10] = tested on: UO-31 renal

| Structure (SMILES) | TGI [1] [µM] | TGI [2] [µM] | TGI [3] [µM] | TGI [4] [µM] | TGI [5] [µM] | TGI [6] [µM] | TGI [7] [µM] | TGI [8] [µM] | TGI [9] [µM] | TGI [10] [µM] |
| --- | --- | --- | --- | --- | --- | --- | --- | --- | --- | --- |
| CSC1=N[C@H](c2ccccc2)CS1 | > 100 | > 100 | > 100 | > 100 | > 100 | > 100 | > 100 | > 100 | > 100 | > 100 |
| C[C@@]12C=CC3C/C(=N\C(N)=S)C=C(CCCC4OCCO4)[C@]3(CC1)C2 (stereo not given in full) | 40.6 | 53.6 | 37.9 | > 100 | 26.4 | 54.3 | 31.7 | 30.6 | 48.4 | 38.9 |
| COc1ccc(C2c3cc4c(cc3C(O)C3CCC(=O)N23)OCO4)cc1 (stereo not given) | > 100 | > 100 | > 100 | > 100 | > 100 | > 100 | > 100 | > 100 | > 100 | > 100 |
| Cc1occc1C(=S)Nc1ccc(Cl)c(C(=O)OCC(F)(F)F)c1 | 64.2 | 45.3 | 39.7 | 59.1 | 43 | 40.1 | 18.1 | 44.9 | 39.3 | 39.1 |
| C[C@H]1[C@H](C)N(Cc2ccccc2)P(=O)(C(O)/C=C/c2ccccc2)N1Cc1ccccc1 (stereo not given in full) | 24.9 | > 25 | > 25 | > 25 | > 25 | > 25 | 10.2 | 9.66 | 10 | 10.7 |
| CCCCCC(=O)Nc1n[nH]nc1C(N)=O | > 100 | > 100 | > 100 | > 100 | > 100 | > 100 | > 100 | > 100 | > 100 | > 100 |
| CCOC(=O)/C(O)=C(/C=N\C(=S)Nc1ccccc1Cl)C(=O)OCC | > 100 | > 100 | > 100 | > 100 | > 100 | > 100 | > 100 | > 100 | > 100 | > 100 |
| Fc1cc(C2=C[C@H](c3ccc(Cl)cc3)NC(=S)N2)c(Cl)cc1Cl | > 100 | > 100 | > 100 | > 100 | > 100 | > 100 | > 100 | 96.2 | > 100 | > 100 |
| O=C(O)C1C(C(=O)O)C2C(=O)C=CC1N2Cc1ccccc1 (stereo not given) | 16.3 | 10.3 | 27.1 | > 100 | 25.7 | 7.58 | 7.56 | 24.1 | 14.2 | 3.72 |
| CCOC(=O)NC(C(F)(F)F)(C(F)(F)F)P(=O)(OC(C)C)OC(C)C | > 100 | > 100 | > 100 | > 100 | > 100 | > 100 | > 100 | > 100 | > 100 | > 100 |
| CCOC(=O)c1ccc(C(=O)OCC)n1-c1cc2cc(c1)CSCc1cc(cc(-n3c(C(=O)OCC)ccc3C(=O)OCC)c1)CSC2 | > 10 | > 10 | > 10 | > 10 | > 10 | > 10 | > 10 | > 10 | > 10 | > 10 |
| COc1ccc(/C=C2/C(C)=NN(c3cccc(Cl)c3)/C2=N/c2nc3ccccc3s2)cc1 | 83.1 | 36.1 | 46.7 | > 100 | 84.4 | 71.6 | 60.7 | 41.8 | 47 | 44.1 |
| CC1=NC(=O)C(C)(c2ccccc2)N1CCc1ccccc1 (stereo not given) | > 100 | > 100 | > 100 | > 100 | > 100 | > 100 | > 100 | > 100 | > 100 | > 100 |
| CSc1nc2ccccc2c(=O)n1/N=C1\C(=O)N(CN2CCCCC2)c2ccc(Cl)cc21 | > 100 | > 100 | 75.1 | > 100 | > 100 | > 100 | > 100 | 54.6 | > 100 | > 100 |
| O=C1CSC2(CC(/C=C/c3ccccc3O)=NN2c2cccc(S(=O)(=O)O)c2)N1c1nc2ccccc2s1 (stereo not given) | > 100 | > 100 | > 100 | > 100 | > 100 | > 100 | 48.8 | > 100 | > 100 | 98.9 |
| O=C(O)C1CC2C3CCC2C1C3=O (stereo not given) | > 100 | > 100 | > 100 | > 100 | > 100 | > 100 | > 100 | > 100 | > 100 | > 100 |
